The IC50 is the concentration at which inhibition is half-maximal.

Each structure is given as a SMILES string.

Here are results for nine compounds from ChEMBL document CHEMBL4715746, “Polyvalent effect enhances diglycosidic antiplasmodial activity” (Eur J Med Chem, 2016).

Data set [1] concerns Plasmodium falciparum. As to the kind of experiment: Antiplasmodial activity against chloroquine-sensitive Plasmodium falciparum 3D7 assessed as inhibition of parasite growth incubated for 48 hrs by SYBR green 1 dye based fluorescence assay. The class given is functional, organism-based.
Data set [2] concerns Plasmodium falciparum. The data set is described as follows: Antiplasmodial activity against chloroquine-resistant Plasmodium falciparum W2 assessed as inhibition of parasite growth incubated for 48 hrs by SYBR green 1 dye based fluorescence assay. The format is functional, organism-based.
For data set [3], the system named is HEK293. The data set is described as follows: Cytotoxicity against human HEK293 cells assessed as reduction in cell viability at 50,000 ug/L incubated for 24 hrs by MTT assay. The format is cell-based. Particulars: hek293, 24 h. In general terms: Formazan colour is commonly taken as a measure of viable cells.
Data set [4] has as its system HEK293. As to the kind of experiment: Cytotoxicity against human HEK293 cells assessed as reduction in cell viability up to 500 ug/L incubated for 24 hrs by MTT assay. The format is cell-based. Particulars: hek293, 24 h.
Where [5] appears, read: Plasmodium falciparum, 3D7, 48 h.
Setting [6] is: Plasmodium falciparum, W2, 48 h.

In the case of `CC(=O)OC[C@H]1O[C@@H](OCCCn2cc(COc3cc(OCc4cnnn4CCCO[C@@H]4O[C@H](COC(C)=O)[C@@H](O)[C@H](O)[C@H]4O[C@@H]4O[C@@H](C)[C@H](OC(C)=O)[C@@H](OC(C)=O)[C@H]4OC(C)=O)cc(OCc4cnnn4CCCO[C@@H]4O[C@H](COC(C)=O)[C@@H](O)[C@H](O)[C@H]4O[C@@H]4O[C@@H](C)[C@H](OC(C)=O)[C@@H](OC(C)=O)[C@H]4OC(C)=O)c3)nn2)[C@H](O[C@@H]2O[C@@H](C)[C@H](OC(C)=O)[C@@H](OC(C)=O)[C@H]2OC(C)=O)[C@@H](O)[C@@H]1O`, the figures for the IC50 in data set [1] (setting [5]) and in data set [2] (setting [6]) were 41.1 µM and 23.6 µM, respectively.

As to `CO[C@@H]1O[C@H](COC(C)=O)[C@@H](O)[C@H](O)[C@H]1O[C@@H]1O[C@@H](C)[C@H](OC(C)=O)[C@@H](OC(C)=O)[C@H]1OC(C)=O`, the IC50 in data set [1] (setting [5]) came out at 143 µM; in data set [2] (setting [6]) it was 100 µM.

As to `CC(=O)OC[C@H]1O[C@@H](OCCCn2cc(COCC(COCc3cn(CCCO[C@@H]4O[C@H](COC(C)=O)[C@@H](O)[C@H](O)[C@H]4O[C@@H]4O[C@@H](C)[C@H](OC(C)=O)[C@@H](OC(C)=O)[C@H]4OC(C)=O)nn3)(COCc3cn(CCCO[C@@H]4O[C@H](COC(C)=O)[C@@H](O)[C@H](O)[C@H]4O[C@@H]4O[C@@H](C)[C@H](OC(C)=O)[C@@H](OC(C)=O)[C@H]4OC(C)=O)nn3)COCc3cn(CCCO[C@@H]4O[C@H](COC(C)=O)[C@@H](O)[C@H](O)[C@H]4O[C@@H]4O[C@@H](C)[C@H](OC(C)=O)[C@@H](OC(C)=O)[C@H]4OC(C)=O)nn3)nn2)[C@H](O[C@@H]2O[C@@H](C)[C@H](OC(C)=O)[C@@H](OC(C)=O)[C@H]2OC(C)=O)[C@@H](O)[C@@H]1O`, the concentration for half-maximal inhibition (IC50) in data set [1] (setting [5]) was 28.1 µM; in data set [2] (setting [6]) it was 25.2 µM.

Regarding `CC(=O)OC[C@H]1O[C@@H](OCCCn2cc(COC[C@H]3O[C@@H](OCc4cn(CCCO[C@@H]5O[C@H](COC(C)=O)[C@@H](O)[C@H](O)[C@H]5O[C@@H]5O[C@@H](C)[C@H](OC(C)=O)[C@@H](OC(C)=O)[C@H]5OC(C)=O)nn4)[C@H](OCc4cnnn4CCCO[C@@H]4O[C@H](COC(C)=O)[C@@H](O)[C@H](O)[C@H]4O[C@@H]4O[C@@H](C)[C@H](OC(C)=O)[C@@H](OC(C)=O)[C@H]4OC(C)=O)[C@@H](OCc4cn(CCCO[C@@H]5O[C@H](COC(C)=O)[C@@H](O)[C@H](O)[C@H]5O[C@@H]5O[C@@H](C)[C@H](OC(C)=O)[C@@H](OC(C)=O)[C@H]5OC(C)=O)nn4)[C@H]3OCc3cn(CCCO[C@@H]4O[C@H](COC(C)=O)[C@@H](O)[C@H](O)[C@H]4O[C@@H]4O[C@@H](C)[C@H](OC(C)=O)[C@@H](OC(C)=O)[C@H]4OC(C)=O)nn3)nn2)[C@H](O[C@@H]2O[C@@H](C)[C@H](OC(C)=O)[C@@H](OC(C)=O)[C@H]2OC(C)=O)[C@@H](O)[C@@H]1O`, the IC50 in data set [1] (setting [5]) turned out to be 13 µM; in data set [2] (setting [6]), 21.9 µM.

For the compound `CCCCCCCCCCCCCCCCO[C@@H]1O[C@H](COC(C)=O)[C@@H](O)[C@H](O)[C@H]1O[C@@H]1O[C@@H](C)[C@H](OC(C)=O)[C@@H](OC(C)=O)[C@H]1OC(C)=O`, the results for the concentration for half-maximal inhibition (IC50) in data set [1] (setting [5]) and in data set [2] (setting [6]) were 24.6 µM and 17.3 µM, respectively. Moreover, the Activity entry in data set [3] is listed as “Toxic”; in data set [4], “Non-Toxic”.

In the case of `CC(=O)OC[C@H]1O[C@@H](OCCCn2cc(COCCOCc3cn(CCCO[C@@H]4O[C@H](COC(C)=O)[C@@H](O)[C@H](O)[C@H]4O[C@@H]4O[C@@H](C)[C@H](OC(C)=O)[C@@H](OC(C)=O)[C@H]4OC(C)=O)nn3)nn2)[C@H](O[C@@H]2O[C@@H](C)[C@H](OC(C)=O)[C@@H](OC(C)=O)[C@H]2OC(C)=O)[C@@H](O)[C@@H]1O`, the IC50 was 41.6 µM in data set [1] (setting [5]) and 37.1 µM in data set [2] (setting [6]).

For `CC(=O)OC[C@H]1O[C@@H](OCCCn2cc(COC[C@H]3O[C@@H](O[C@H]4[C@H](OCc5cn(CCCO[C@@H]6O[C@H](COC(C)=O)[C@@H](O)[C@H](O)[C@H]6O[C@@H]6O[C@@H](C)[C@H](OC(C)=O)[C@@H](OC(C)=O)[C@H]6OC(C)=O)nn5)[C@@H](OCc5cnnn5CCCO[C@@H]5O[C@H](COC(C)=O)[C@@H](O)[C@H](O)[C@H]5O[C@@H]5O[C@@H](C)[C@H](OC(C)=O)[C@@H](OC(C)=O)[C@H]5OC(C)=O)[C@H](OCc5cn(CCCO[C@@H]6O[C@H](COC(C)=O)[C@@H](O)[C@H](O)[C@H]6O[C@@H]6O[C@@H](C)[C@H](OC(C)=O)[C@@H](OC(C)=O)[C@H]6OC(C)=O)nn5)O[C@@H]4COCc4cn(CCCO[C@@H]5O[C@H](COC(C)=O)[C@@H](O)[C@H](O)[C@H]5O[C@@H]5O[C@@H](C)[C@H](OC(C)=O)[C@@H](OC(C)=O)[C@H]5OC(C)=O)nn4)[C@H](OCc4cnnn4CCCO[C@@H]4O[C@H](COC(C)=O)[C@@H](O)[C@H](O)[C@H]4O[C@@H]4O[C@@H](C)[C@H](OC(C)=O)[C@@H](OC(C)=O)[C@H]4OC(C)=O)[C@@H](OCc4cn(CCCO[C@@H]5O[C@H](COC(C)=O)[C@@H](O)[C@H](O)[C@H]5O[C@@H]5O[C@@H](C)[C@H](OC(C)=O)[C@@H](OC(C)=O)[C@H]5OC(C)=O)nn4)[C@H]3OCc3cnnn3CCCO[C@@H]3O[C@H](COC(C)=O)[C@@H](O)[C@H](O)[C@H]3O[C@@H]3O[C@@H](C)[C@H](OC(C)=O)[C@@H](OC(C)=O)[C@H]3OC(C)=O)nn2)[C@H](O[C@@H]2O[C@@H](C)[C@H](OC(C)=O)[C@@H](OC(C)=O)[C@H]2OC(C)=O)[C@@H](O)[C@@H]1O`, the IC50 in data set [1] was found to be 28.4 µM; in data set [2] it was 12.6 µM.

Consider `CC(=O)OC[C@H]1O[C@@H](OCCCN=[N+]=[N-])[C@H](O[C@@H]2O[C@@H](C)[C@H](OC(C)=O)[C@@H](OC(C)=O)[C@H]2OC(C)=O)[C@@H](O)[C@@H]1O`, for which the figures for the IC50 in data set [1] (setting [5]) and in data set [2] (setting [6]) were 58.7 µM and 41.9 µM, respectively. Also, the Activity result in data set [3] and in data set [4] was “Non-Toxic” throughout.

On to `CCN(CC)CCCC(C)Nc1ccnc2cc(Cl)ccc12` (configuration not stated) [CHLOROQUINE], for which the Activity result in data set [3] is reported as “Toxic”; in data set [4], “Non-Toxic”.
